This passage reports IC50 results from ChEMBL document CHEMBL1781913, “Design and synthesis of 3-alkyl-2-aryl-1,3-thiazinan-4-one derivatives as selective cyclooxygenase (COX-2) inhibitors” (Bioorg Med Chem Lett, 2009).

In the experiment the target is T1, Prostaglandin G/H synthase 1 (Ovis aries, UniProt P05979).
T1 sequence (P05979 whole entry): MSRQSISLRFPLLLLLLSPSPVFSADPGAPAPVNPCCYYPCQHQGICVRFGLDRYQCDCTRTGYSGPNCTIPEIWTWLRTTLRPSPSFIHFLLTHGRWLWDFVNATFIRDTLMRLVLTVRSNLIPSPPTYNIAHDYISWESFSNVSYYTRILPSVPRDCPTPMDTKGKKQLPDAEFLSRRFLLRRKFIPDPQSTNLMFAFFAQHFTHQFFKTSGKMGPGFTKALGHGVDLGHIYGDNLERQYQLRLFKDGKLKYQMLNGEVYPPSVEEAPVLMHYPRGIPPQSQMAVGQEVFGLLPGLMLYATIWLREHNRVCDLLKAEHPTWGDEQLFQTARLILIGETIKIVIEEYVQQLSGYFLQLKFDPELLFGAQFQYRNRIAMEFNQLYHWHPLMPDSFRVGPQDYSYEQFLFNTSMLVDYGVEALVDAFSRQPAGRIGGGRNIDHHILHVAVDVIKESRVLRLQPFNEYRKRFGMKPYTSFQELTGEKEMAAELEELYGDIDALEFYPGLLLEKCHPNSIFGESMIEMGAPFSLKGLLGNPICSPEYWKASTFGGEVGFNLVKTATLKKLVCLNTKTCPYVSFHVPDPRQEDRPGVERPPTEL
Kind of experiment: Inhibition of ovine COX1 by chemiluminescent assay.
A word on the IC50: it is the concentration that inhibits the measured activity by half. Higher therefore signals weaker potency in that assay. Take `CS(=O)(=O)c1ccc(C2SCCC(=O)N2Cc2ccccc2)cc1` (stereo not given): the IC50 amounted to 17.2 µM. Turning to `CS(=O)(=O)c1ccc(C2SCCC(=O)N2CCc2ccccc2)cc1` (stereo not given), the IC50 worked out at 16 µM. The molecule `CCCN1C(=O)CCSC1c1ccc(S(C)(=O)=O)cc1` (stereo not given) showed an IC50 of 14.1 µM. Take `CCCCN1C(=O)CCSC1c1ccc(S(C)(=O)=O)cc1` (stereo not given): the IC50 worked out at 14.8 µM. Regarding `CCCCCN1C(=O)CCSC1c1ccc(S(C)(=O)=O)cc1` (stereo not given), inhibition was half-maximal at 14.9 µM (IC50).
